Consider two compounds from PMC12782889, “A GmNRF5a–GmCERK1–GmCAK1 module mediates chitin/chitosan‐triggered immune response in soybean” (Journal of Integrative Plant Biology, 2025).

The test system of assay [1] is phosphorylated MPK6/3/4 (P42/44) in soybean leaf discs. The assay can be described thus: MAPK phosphorylation immunoblot in soybean leaf discs. As to conditions: soybean leaf discs at 5 min; anti-phospho P42/44 immunoblot; vs control dH2O. The assay is classed as cell-based, soybean (Glycine max). The procedure: (§1) To measure the oxidation burst, leaf discs (Ø 0.5 cm) collected from 2-week-old soybean (cultivar Williams) were floated overnight in 200 μL sterile H2O in a 96-well plate. The H2O was replaced with 200 μL reaction buffer containing luminol/peroxidase ([…] luminol, 10 mg/mL peroxidase) and chitooligosaccharides treatments (50 mg/L). flg22 was used as a positive control. The luminescence was measured using a GLOMAX96 microplate luminometer (Promega, Madison, WI, USA). The experiments for MAPK activation were carried out as described previously ([[…] et al., 2014]). The MAPK activation was determined by immunoblots with anti-phospho-p44/42 MAPK antibody (#4370; Cell Signaling, Boston, MA, USA).
Background: A western blot detects proteins with antibodies after separation by electrophoresis.

The subject of assay [2] is GmNFR5a-GmCERK1 interaction. The assay can be described thus: Co-immunoprecipitation of GmNFR5a-GFP with GmCERK1-HA in N. benthamiana. The assay is classed as cell-based, soybean (Glycine max). As to conditions: Co-IP; N. benthamiana leaves treated 50 mg/L for 5 min. As to the method: Nicotiana benthamiana leaves were harvested 48 h post inoculation (hpi) after agroinfiltration. Samples were ground in liquid nitrogen and incubated for 30 min in a lysis buffer (50 mM Tris-HCl pH 8.0, 150 mM NaCl, 1.0% (v/v) NP-40, 0.1% SDS (w/v) and 0.1% protease inhibitor cocktail ([…]; Sigma, St. Louis, MI, USA)). Supernatant was collected by centrifugation at 21,000 g for 15 min and then incubated with GFP-trap beads (item No.: gta-20; Chromotek, Hauppauge, NY, USA) at 4°C for 2 h. The GFP-trap beads were pelleted by centrifugation at 500 g for 2 min and washed with lysis buffer at least four times. Proteins were eluted by boiling the beads in a protein loading buffer for 10 min and detected by immunoblot analysis with anti-GFP (Cat No. M20004; Abmart, Shanghai, China) or anti-HA (Cat No. M20013; Abmart, Shanghai, China).

The target of the next assay is T1, UGT76G1 (Stevia rebaudiana, UniProt Q6VAB4).
T1 construct: made in house
T1 sequence (Q6VAB4 1-458): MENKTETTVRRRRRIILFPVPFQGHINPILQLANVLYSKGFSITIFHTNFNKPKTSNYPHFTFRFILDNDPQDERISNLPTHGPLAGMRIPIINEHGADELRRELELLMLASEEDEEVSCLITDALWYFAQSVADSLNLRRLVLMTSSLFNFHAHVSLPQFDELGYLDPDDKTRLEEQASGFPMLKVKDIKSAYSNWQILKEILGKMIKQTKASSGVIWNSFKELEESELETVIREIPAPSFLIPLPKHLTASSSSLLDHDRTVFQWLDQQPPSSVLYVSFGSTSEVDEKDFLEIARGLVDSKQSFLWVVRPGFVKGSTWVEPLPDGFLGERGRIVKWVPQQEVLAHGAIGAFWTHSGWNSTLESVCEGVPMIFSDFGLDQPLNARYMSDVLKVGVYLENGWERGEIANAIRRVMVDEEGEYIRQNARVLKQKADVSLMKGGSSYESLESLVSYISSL
In words: MST binding to UGT76G1 (negative control protein).

For the next assay, the target named is GmCERK1^ECD (Glycine max, UniProt K7N1N7). In words: Microscale thermophoresis (MST) binding to GmCERK1^ECD. Further details: species or system soybean (Glycine max). As to conditions: ligand dp6, His-tagged protein purified from Pichia pastoris, read-out: dissociation constant (K D) with GmCERK1^ECD. The text has this: The ectodomains of GmCERK1, GmNFR5a, and mutants were cloned into the yeast expression vector pPICZαA (Thermo Fisher Scientific, Shanghai, China) through the double digestion and ligation using the restriction endonuclease EcoRI/XbaI (NEB, Suzhou, China) and T4 ligase. Then, the linearized recombinant plasmid pPICZαA‐GmCERK1 and pPICZαA‐GmNFR5a were transformed into P. pastoris X‐33. The positive colonies were selected on YPDS medium (1% w/v yeast extract, 2% w/v peptone, 2% w/v glucose, 2% w/v agar, 100 μg/mL antibiotic Zeocin (Thermo Fisher Scientific)) plates and verified by direct DNA sequencing. Protein expression was carried out initially in BMGY media (100 mM potassium phosphate pH 6.0, 1.34% w/v YNB, 4 × 10^−5% w/v biotin, 1% v/v glycerol) at 28°C with shaking (180 rpm) until the OD600 reached 2.0–6.0. The cell pellet was transferred into BMMY medium (100 mM potassium phosphate pH 6.0, 1.34% w/v YNB, 4 × 10^−5% w/v biotin, 0.5% v/v methanol) and continuously supplied with the addition of 0.5% (v/v) methanol every day for 5 d. […]
GmCERK1^ECD, GmNFR5a^ECD, and all mutants were labeled with a fluorescent dye using the Monolith Protein Labeling Kit RED‐NHS second Generation (MO‐L011). […] The data were analyzed and fitted by plotting ligand concentrations against bound fractions using the MO.Affinity Analysis v3.0.5 software. […]

The subject of assay [3] is soybean leaf discs (ROS burst). In words: Luminol-based ROS burst assay in soybean leaf discs. The assay is classed as cell-based, soybean (Glycine max). Conditions: 50 mg/L, leaf discs of soybean Williams, dH2O negative control. The procedure:
as §1

SMILES strings stand for the structures.

GmCERK1^ECD, sequence (K7N1N7 entry or part of it): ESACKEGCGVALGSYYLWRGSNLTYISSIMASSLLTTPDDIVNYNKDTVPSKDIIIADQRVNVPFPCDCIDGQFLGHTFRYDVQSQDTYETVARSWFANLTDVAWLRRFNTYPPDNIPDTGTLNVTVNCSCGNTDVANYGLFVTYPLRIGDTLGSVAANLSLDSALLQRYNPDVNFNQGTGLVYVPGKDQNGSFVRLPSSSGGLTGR

For the compound `N[C@H]1[C@H](O[C@H]2[C@H](O)[C@@H](N)[C@H](O[C@H]3[C@H](O)[C@@H](N)[C@H](O[C@H]4[C@H](O)[C@@H](N)[C@H](O[C@H]5[C@H](O)[C@@H](N)[C@H](O[C@H]6[C@H](O)[C@@H](N)C(O)O[C@@H]6CO)O[C@@H]5CO)O[C@@H]4CO)O[C@@H]3CO)O[C@@H]2CO)O[C@H](CO)[C@@H](O)[C@@H]1O` (some centres unmarked) [CSOS (dp6), chitosan oligosaccharide], the MAPK phosphorylation entry in assay [1] is reported as “can induce MAPK activity”. Also, the “GmNFR5a interaction with GmCERK1” value in assay [2] is recorded as “interacted strongly”. On UGT76G1, the “binding to UGT76G1” value is “cannot bind”. In addition, at GmCERK1^ECD, the Kd stood at 10.6 ± 1.46 mM.

In the case of `CC(=O)N[C@H]1[C@H](O[C@H]2[C@H](O)[C@@H](NC(C)=O)[C@H](O[C@H]3[C@H](O)[C@@H](NC(C)=O)C(O)O[C@@H]3CO)O[C@@H]2CO)O[C@H](CO)[C@@H](O[C@@H]2O[C@H](CO)[C@@H](O[C@@H]3O[C@H](CO)[C@@H](O[C@@H]4O[C@H](CO)[C@@H](O)[C@H](O)[C@H]4NC(C)=O)[C@H](O)[C@H]3NC(C)=O)[C@H](O)[C@H]2NC(C)=O)[C@@H]1O` (some centres unmarked) [CTOS (dp6), chitin oligosaccharide], the “GmNFR5a interaction with GmCERK1” value in assay [2] is listed as “interacted strongly”. For the same compound, the ROS burst result in assay [3] is reported as “stronger ROS burst than that of CTOS (dp4)”. Moreover, at UGT76G1, the “binding to UGT76G1” value was “cannot bind”. The Kd at GmCERK1^ECD came out at 3.25 ± 0.95 mM.
